Laboratory results from patent publication US20260232574A1, “COMPOSITIONS AND METHODS FOR TREATING DYSMENORRHEA” (Daré Bioscience, Inc., priority 2023, published 2026).

Assay: pH / titration curve of 4% diclofenac sodium in water
Assay type: physicochemical

O=C(O)Cc1ccccc1Nc1c(Cl)cccc1Cl [diclofenac, 2-[2-(2,6-dichloroanilino)phenyl]acetic acid]
pH of diclofenac in water (4% diclofenac sodium in water): around 7.8 | buffering capacity to adjust the pH by 1 unit (strong acid or base): 0.625 mMoles
